The source made the active and inactive calls. The calls are words filed in the database; no cut-off is given here.

A short description of data set [1]: Metabolic stability in mouse plasma assessed as compound remaining at 10 uM at 60 mins by LC-MS/MS analysis. The data set is classed as ADME, cell-free. Conditions: read-out: Stability.
Data set [2] in a line: Metabolic stability in monkey plasma assessed as compound remaining at 10 uM at 60 mins by LC-MS/MS analysis. The settings on record: rhesus monkey, read-out: Stability. The data set is classed as ADME, cell-free, Macaca mulatta.
Data set [3] can be described thus: Metabolic stability in human plasma assessed as compound remaining at 10 uM at 60 mins by LC-MS/MS analysis. Type of data set: ADME, cell-free. Conditions: read-out: Stability.
Data set [4] is described as follows: Chemical stability of the compound at 10 uM at pH 7.4 after 1 hr by LC-MS/MS analysis. Type of data set: physicochemical. The settings on record: buffer; for remaining at 1 h, 10 µM: pH 7.4, read-out: Stability; for Stability: pH 7.4, 1 h, 10 µM.
Data set [5] has as its system Mus musculus. Kind of data set: In vivo inhibition of glutamine metabolism in RHFoxn1nu mouse xenografted with human U87 cells assessed as accumulation of endogenous glutamine in tumor at 0.8 mg/kg, ip administered as single dose measured after 2 hrs by HPLC-MS analysis. Type of data set: functional, organism-based. The settings on record: U-87MG ATCC. A general note: Xenograft models place foreign cells or tissue in a host animal.

The nature of data set [6]: Antitumor activity against human U87 cells xenografted in RHFoxn1nu mouse assessed as tumor volume at 0.8 mg/kg, ip qd for 6 days measured immediately post dose (reference value: 409 mm3). Type of data set: functional, U-87MG ATCC.
Data set [7] in a line: Antitumor activity against human U87 cells xenografted in RHFoxn1nu mouse assessed as tumor volume at 0.8 mg/kg, ip qd for 6 days measured on day 2 post dose (reference value: 401 mm3). Type of data set: functional, U-87MG ATCC.
Data set [8] can be described thus: Antitumor activity against human U87 cells xenografted in RHFoxn1nu mouse assessed as tumor volume at 0.8 mg/kg, ip qd for 6 days measured on day 4 post dose (reference value: 454 mm3). The data set is classed as functional, U-87MG ATCC.
The nature of data set [9]: Antitumor activity against human U87 cells xenografted in RHFoxn1nu mouse assessed as tumor volume at 0.8 mg/kg, ip qd for 6 days measured on day 6 post dose (reference value: 533 mm3). Type of data set: functional, U-87MG ATCC.
In data set [10] the test system is Mus musculus. Nature of the data set: Toxicity in RHFoxn1nu mouse xenografted with human U87 cells assessed as weight loss at 0.8 mg/kg, ip qd for 6 days. Conditions: in vivo, 144 h. Type of data set: organism-based, U-87MG ATCC.
Data set [11] deals with Mus musculus. Kind of data set: Toxicity in RHFoxn1nu mouse xenografted with human U87 cells assessed as hunching at 0.8 mg/kg, ip qd for 6 days. Type of data set: organism-based, U-87MG ATCC. Conditions: in vivo, 144 h.
Data set [12] concerns Mus musculus. Nature of the data set: Toxicity in RHFoxn1nu mouse xenografted with human U87 cells assessed as ptosis at 0.8 mg/kg, ip qd for 6 days. The data set is classed as organism-based, U-87MG ATCC. Conditions: in vivo, 144 h.
Data set [13] relates to Mus musculus. Kind of data set: Toxicity in RHFoxn1nu mouse xenografted with human U87 cells assessed as lethargy at 0.8 mg/kg, ip qd for 6 days. The data set is classed as organism-based, U-87MG ATCC. The settings on record: in vivo, 144 h.
Data set [14] in a line: Antitumor activity against human U87 cells xenografted in RHFoxn1nu mouse assessed as reduction in tumor volume at 0.8 mg/kg, ip qd for 6 days measured 2 to 6 days post dose. Conditions: U-87 MG. The data set is classed as functional, U-87MG ATCC.
A short description of data set [15]: Cmax in C57BL/6 mouse plasma at 0.8 mg/kg administered via oral gavage by LC-MS analysis. Type of data set: ADME, organism-based. Also on record: dose 0.8 mg/kg, route oral.
Data set [16] is described as follows: Cmax in C57BL/6 mouse brain at 0.8 mg/kg administered via oral gavage by LC-MS analysis. Conditions: in vivo. The data set is classed as ADME, organism-based. Also on record: dose 0.8 mg/kg, route oral.
Data set [17] is described as follows: Tmax in C57BL/6 mouse plasma at 0.8 mg/kg administered via oral gavage by LC-MS analysis. Type of data set: ADME, organism-based.
The nature of data set [18]: Ratio of drug level in C57BL/6 mouse brain to plasma at 0.8 mg/kg administered via oral gavage. Type of data set: ADME, organism-based. The settings on record: read-out: BPR.
Data set [19] is described as follows: Cmax in pig-tail monkey plasma at 1.6 mg/kg, iv by LC-MS analysis. Also on record: dose 1.6 mg/kg, route intravenous. Type of data set: ADME, organism-based. The settings on record: macaca nemestrina.
The nature of data set [20]: Drug uptake in pig-tail monkey CSF at 1.6 mg/kg, iv measured at 30 mins post dose by LC-MS analysis. Type of data set: ADME, organism-based, Cerebrospinal fluid. Conditions: macaca nemestrina, in vivo, 0.5 h.
A short description of data set [21]: in vivo. Conditions: C57BL/6, mouse, plasma, po, 0.8 mg/kg.
Description: AUC (0 to t) in C57BL/6 mouse plasma at 0.8 mg/kg administered via oral gavage measured at 10 to 90 mins post dose by LC-MS analysis
The nature of data set [22]: in vivo. Conditions: macaca nemestrina, plasma, iv, 1.6 mg/kg.
Description: AUC (0 to t) in pig-tail monkey plasma at 1.6 mg/kg, iv measured at 0.25 to 6 hrs post dose by LC-MS analysis
Data set [23] can be described thus: Cmax in C57BL/6 mouse plasma assessed as 6-Diazo-5-oxo-L-norleucine levels at 1.8 mg/kg administered via oral gavage by LC-MS analysis. Type of data set: ADME, organism-based. Conditions: in vivo. Also on record: dose 1.8 mg/kg, route oral.
Data set [24] can be described thus: Cmax in C57BL/6 mouse brain assessed as 6-Diazo-5-oxo-L-norleucine levels at 1.8 mg/kg administered via oral gavage by LC-MS analysis. Type of data set: ADME, organism-based. Also on record: dose 1.8 mg/kg, route oral. Conditions: in vivo.
Data set [25] is described as follows: Tmax in C57BL/6 mouse plasma assessed as 6-Diazo-5-oxo-L-norleucine levels at 1.8 mg/kg administered via oral gavage by LC-MS analysis. The settings on record: in vivo. The data set is classed as ADME, organism-based.
Data set [26] can be described thus: AUC (0 to t) in C57BL/6 mouse plasma assessed as 6-Diazo-5-oxo-L-norleucine levels at 1.8 mg/kg administered via oral gavage measured at 10 to 90 mins post dose by LC-MS analysis. The data set is classed as ADME, organism-based. The settings on record: in vivo.
A short description of data set [27]: AUC (0 to t) in C57BL/6 mouse brain assessed as 6-Diazo-5-oxo-L-norleucine levels at 1.8 mg/kg administered via oral gavage measured at 10 to 90 mins post dose by LC-MS analysis. The settings on record: in vivo. The data set is classed as ADME, organism-based.
Data set [28] can be described thus: Ratio of drug level in C57BL/6 mouse brain to plasma assessed as 6-Diazo-5-oxo-L-norleucine levels at 1.8 mg/kg administered via oral gavage. The data set is classed as ADME, organism-based.
Data set [29] is described as follows: Cmax in pig-tail monkey plasma assessed as 6-Diazo-5-oxo-L-norleucine levels at 3.6 mg/kg, iv by LC-MS analysis. Type of data set: ADME, organism-based. Also on record: dose 3.6 mg/kg, route intravenous. The settings on record: macaca nemestrina, in vivo.
Data set [30] can be described thus: Tmax in pig-tail monkey plasma assessed as 6-Diazo-5-oxo-L-norleucine levels at 3.6 mg/kg, iv by LC-MS analysis. The data set is classed as ADME, organism-based. The settings on record: macaca nemestrina, in vivo.
Data set [31] can be described thus: AUC (0 to t) in pig-tail monkey plasma assessed as 6-Diazo-5-oxo-L-norleucine levels at 3.6 mg/kg, iv measured at 0.25 to 6 hrs post dose by LC-MS analysis. The data set is classed as ADME, organism-based. Also on record: time upper 6 hr, dose 3.6 mg/kg, time lower 0.25 hr, route intravenous. Conditions: macaca nemestrina, in vivo.
Data set [32] can be described thus: Prodrug activation in pig-tail monkey CSF assessed as 6-Diazo-5-oxo-L-norleucine levels at 3.6 mg/kg, iv measured at 30 mins post dose by LC-MS analysis. Conditions: macaca nemestrina, in vivo, 0.5 h. Type of data set: organism-based, Cerebrospinal fluid.

Turning to `CCC(OC(=O)N[C@@H](CCC(=O)C=[N+]=[N-])C(=O)OC)OC(=O)C(C)(C)C` (stereo partly drawn), the remaining at 1 h, 10 µM was 0% in data set [1], 75% in data set [2], 88% in [3] and > 90% in data set [4].
As for `CC(C)C[C@H](N)C(=O)N[C@@H](CCC(=O)C=[N+]=[N-])C(=O)OC(C)C`, the remaining at 1 h, 10 µM in data set [1] was 0%; in [2] it was 1%; in data set [3], 1%; in data set [4] it was > 90%.
On to `CCOC(=O)[C@H](CCC(=O)C=[N+]=[N-])NC(=O)OCc1oc(=O)oc1C`, for which the remaining at 1 h, 10 µM in [1] was 0%; in [2], 0%; in data set [3], 0%; in [4], > 90%.
As to `Cc1oc(=O)oc1COC(=O)N[C@@H](CCC(=O)C=[N+]=[N-])C(=O)OC(C)C`, the remaining at 1 h, 10 µM in data set [1] is 0%; in [2], 0%; in data set [3], 0%; in [4], > 90%.
The inhibition in vivo is the drop in the measured response relative to a control, in per cent. Usually Tmax stands for the time from dosing to the highest level. What is called AUC(0-t) is the area under the concentration-time curve up to a stated or last time point. Consider `[N-]=[N+]=CC(=O)CC[C@H](N)C(=O)O` [6-DIAZO-5-OXO-L-NORLEUCINE], for which the inhibition result with Mus musculus [5] was “Active”. The Activity in data set [6] is reported as 504 mm3; in data set [7], 364 mm3; in data set [8] it was 256 mm3; in data set [9], 251 mm3; in the data set with Mus musculus [10] it was 12%; with Mus musculus [11], “Toxic”. For the same compound, the Activity result in the data set with Mus musculus [12] and with Mus musculus [13] was “Toxic” in each case. Besides, in data set [14], the inhibition in vivo at 0.8 mg/kg was > 50%. Also, the results for the Cmax in data set [15], in [16] and in [19] were 2200 nM, 0.56 nmol/g and 12600 nM, respectively. The Tmax in data set [17] was 10.2 min. The Kp in data set [18] was 0.46. In data set [20], the Drug uptake was found to be 0.33 nmol/g. Also, the AUC(0-t) in “in vivo [21]” amounted to 1.25 µM·h; in the data set “in vivo [22]”, 42.7 µM·h.
For the compound `CC(C)OC(=O)[C@@H](N)CCC(=O)C=[N+]=[N-]`, the Stability result in data set [4] was “Unstable”.
For the compound `CCOC(=O)[C@H](CCC(=O)C=[N+]=[N-])NC(=O)[C@@H](N)CC(C)C`, the remaining at 1 h, 10 µM was 0% in data set [1], 1% in data set [2], 1% in data set [3] and > 90% in data set [4].
Turning to `CC(C)OC(=O)[C@H](CCC(=O)C=[N+]=[N-])NC(=O)OCOC(=O)C(C)(C)C`, the remaining at 1 h, 10 µM is 0% in data set [1], 0% in data set [2], 9% in [3] and > 90% in [4].
Turning to `COC(=O)[C@H](CCC(=O)C=[N+]=[N-])NC(=O)OC(OC(=O)C(C)(C)C)C(C)C` (stereo partly drawn), the remaining at 1 h, 10 µM in data set [1] is 0%; in data set [2], 61%; in [3], 91%; in [4] it was > 90%. For the same compound, the Cmax in data set [23] was determined as 1500 nM; in data set [24], 0.64 nmol/g; in data set [29] it was 2230 nM. The results for the Tmax in [25] and in [30] were 90 min and 15 min, respectively. The results for the AUCt in [26], in data set [27] and in [31] were 1.22 µM·h, 0.69 nmol·h/g and 5.71 µM·h, respectively. Moreover, the BPR in data set [28] amounted to 0.57. Moreover, the Drug metabolism in data set [32] was determined as 1.43 nmol/g.
Consider `CCOC(=O)[C@@H](N)CCC(=O)C=[N+]=[N-]`, for which, in data set [4], the Stability result is listed as “Unstable”.

Source of the values: ChEMBL document CHEMBL3856236, “Discovery of 6-Diazo-5-oxo-l-norleucine (DON) Prodrugs with Enhanced CSF Delivery in Monkeys: A Potential Treatment for Glioblastoma” (J Med Chem, 2016).
